Test results taken from PMC11017252, “Copper(II) Complexes with 2,2′:6′,2″-Terpyridine Derivatives Displaying Dimeric Dichloro−μ–Bridged Crystal Structure: Biological Activities from 2D and 3D Tumor Spheroids to In Vivo Models” (Journal of Medicinal Chemistry, 2024).

How the values were obtained:
[1] = test system: HCT116DoxR (Dox-resistant colorectal carcinoma cell line); assay: MTS cell viability assay, 2D culture, HCT116DoxR; settings: read-out: IC50 (μM) HCT116DoxR, 48 h of exposure
Procedure: (§1) The in vitro cytotoxic potential of Cu(II) complexes in tumor and healthy cells was assessed using the MTS assay, a colorimetric method that allows the quantification of viable cells in culture.[46]
In this regard, cell viability was performed for each of the ligands on HCT116DoxR and fibroblasts.
Cell culture and maintenance
(§2) The cancer cell lines HCT116 (colorectal carcinoma) and A2780 (ovarian carcinoma) were obtained
(§3) from the American Type Culture Collection (ATCC®, Manassas, VA, USA), as well as the normal
human primary dermal fibroblasts.
(§4) Apart from the A2780 cell line, which was cultured in Roswell Park Memorial Institute (RPMI)
(§5) medium, all cells were cultured in Dulbecco’s modified Eagle medium (DMEM). Both media were
(§6) supplemented with 10% (v/v) fetal bovine serum (FBS) and 1% (v/v) of a Pen/Strep
(§7) (Penicillin/Streptomycin) solution. To maintain the resistant phenotype of the HCT116DoxR cell line,
(§8) the medium was additionally supplemented with 3.6 μM Dox4. All media and supplements were
(§9) purchased from Thermo Fischer Scientific (Waltham, MA, USA).
(§10) Cells were maintained in 25 cm2 T-flasks (T25) in a humidified atmosphere at 37 °C and 5% (v/v) CO
(§11) (SANYO CO2 Incubator, Electric Biomedical Co., Osaka, Japan).
(§12) The effect of Cu(II) complexes on cell viability was studied in HCT116, HCT116DoxR, and A2780
(§13) cancer cell lines and in normal human primary fibroblasts. Cells were seeded in a density of 0.75×105
(§14) cells/mL into 96-well plates and incubated in a humidified atmosphere at 37 °C and 5% (v/v) CO2 for
(§15) 24 h. After incubation, complexes were weighed, immediately solubilized in 100% (v/v) DMSO and
(§16) diluted for the final concentration with cell culture medium. The medium in each well was replaced by
(§17) a solution of fresh medium containing each Cu(II) complex (concentrations ranging from 0.01 μM to
(§18) as negative and positive controls, respectively.
(§19) Following a second incubation period of 48 h in the same conditions, the supernatant of each well was
(§20) replaced by a solution containing MTS reagent (3-(4,5-dimethylthiazol-2-yl)-5-(3-
(§21) carboxymethoxyphenyl)-2-(4-sulfophenyl)-2H-tetrazolium) provided by the CellTiter 96® AQueous
(§22) Non-Radioactive Cell Proliferation Assay Kit (Promega, Madison, WI, EUA) for a 30 minutes
(§23) incubation. The percentage of viable cells was indirectly determined by the spectrophotometric
(§24) quantification at 490 nm in a microplate reader, Tecan Infinite M200 (Tecan, Männedorf, Switzerland)
(§25) of formazan production, resultant from the reduction of the MTS reagent by mitochondrial
(§26) dehydrogenases. Since these enzymes are only active in viable cells, the absorbance value measured is
(§27) directly proportional to the percentage of viable cells in culture5.

[2] = test system: normal human primary dermal fibroblasts; assay: MTS cell viability assay, normal fibroblasts; type: cell-based; settings: 48 h of exposure
Procedure: as §1
Cell culture and maintenance
as §2, §3
human primary dermal fibroblasts.
as §4, §5, §6, §7, §8, §9, §10, §11, §12, §13, §14, §15, §16, §17, §19, §20, §22, §23, §24, §25

pUC18 plasmid DNA = assay: pDNA cleavage in vitro (agarose gel electrophoresis); type: biochemical, E. coli; settings: for effect of control reagent alone on pUC18: TBHP 20 μM, NaN3 50 μM
[3] = test system: HCT116 (colorectal carcinoma cell line); assay: MTS cell viability assay, 2D culture, HCT116; type: cell-based, human; settings: 48 h of exposure
Procedure: as §1
Cell culture and maintenance
as §2, §3
human primary dermal fibroblasts.
as §4, §5, §6, §7, §8, §9, §10, §11, §12, §13, §14, §15, §16, §17, §18, §19, §20, §21, §22, §23, §24, §25, §26, §27
(§28) By analysing the cell viability as a function of log10(concentration) using Prism 8 (GraphPad
(§29) in cell viability) of each complex in the respective cell line at 48 h. The selective index (SI) for each
(§30) complex was also determined by dividing the IC50 of human fibroblasts by the respective IC50 in each
(§31) cancer cell line (allowing us to understand how much active a complex is in tumor versus normal cell).

[4] = test system: A2780 (ovarian carcinoma cell line); assay: MTS cell viability assay, 2D culture, A2780; type: cell-based, human; settings: 48 h of exposure
Procedure: as §1
Cell culture and maintenance
as §2, §3
human primary dermal fibroblasts.
as §4, §5, §6, §7, §8, §9, §10, §11, §12, §13, §14, §15, §16, §17, §18, §19, §20, §21, §22, §23, §24, §25, §26, §27, §28, §29, §30, §31

BAX and BCL-2 = BAX and BCL-2 protein expression by Western Blot; type: cell-based, human; settings: HCT116DoxR, 48 h, IC50; normalized to β-actin
chicken embryos = assay: Ex-ovo chick chorioallantoic membrane (CAM) assay; type: in vivo; settings: IC50, vs DMSO control
HCT116DoxR cells [5] = assay: Annexin V-FITC/PI apoptosis assay by flow cytometry; settings: 48 h
Procedure: To evaluate the cell death mechanism involved in the cytotoxic effect of the selected complexes, a double-staining with Annexin V-FITC and PI was performed. […] The use of Annexin V conjugated with the fluorophore FITC allows the quantification of this interaction and subsequent identification of cells in apoptosis by flow cytometry. Furthermore, PI is a fluorophore that can intercalate with DNA and that can only enter the cell when the membrane is either compromised or ruptured, making it possible to identify cells undergoing late apoptosis and necrosis. Therefore, the double staining makes it possible to distinguish between viable cells (FITC^–; IP^–), those undergoing initial apoptosis (FITC^+; IP^–), those undergoing late apoptosis (FITC^+; IP^+), and those undergoing necrosis (FITC^–; IP^+).[55],[58]
Evaluation of apoptosis induction in HCT116DoxR cell line by flow cytometry The induction of apoptosis in HCT116DoxR cell line was evaluated by flow cytometry, using the
Annexin V-FITC Apoptosis Detection Kit (Thermo Fisher Scientific, Waltham, MA, USA). Cells
were seeded in 6-well plates at a cell density of 1×10^5 cells/mL and incubated for 24 h. Afterwards,
culture medium was replaced by medium with different Cu(II) complexes at their IC50 concentrations.
After 48 h of incubation, cells were washed with PBS 1x, detached from each well with TrypLETM
Express and washed again with PBS 1x. Cells were then resuspended in 1x annexin-binding buffer and
incubated at rt for 15 min with Annexin V-FITC and 100 μg/mL PI.
All samples were analysed by an Attune® Acoustic Focusing Flow Cytometer (Thermo Fischer
Scientific, Waltham, MA, USA) and the results were processed with Attune® Cytometric software

EB–ct-DNA adduct = assay: Ethidium bromide displacement fluorescence assay; type: binding, calf; settings: PBS
HCT116DoxR spheroids = assay: MTS cell viability assay in 3D HCT116DoxR spheroids; type: cell-based, human; settings: 6-day-old spheroids, 48 h of exposure
HCT116DoxR cells [6] = assay: Cell cycle progression (PI, flow cytometry)
Source text: Therefore, we have assessed the cytostatic potential of complexes 2, 3, 5, and 7, and their ability to interfere with the progression of the cell cycle using the fluorescent marker PI. Since this marker can intercalate with DNA, the measurement of the fluorescence emitted by flow cytometry makes it possible to assess the DNA content at each stage of the cell cycle (G0/G1, S, and G2/M).[67] To ensure that all the cells were in the same phase before their exposure to the complexes, a double block was carried out with thymidine, a DNA synthesis inhibitor.[67]
HCT116DoxR cell line was seeded in 6-well plates in a density of 1×10^5 cells/mL and incubated for
24 h. Afterwards, the culture medium was replaced by medium with IC50 concentrations of different
HCT116DoxR cell line was seeded in 6-well plates in a density of 1×10^5 cells/mL, incubated for 8 h in
a humidified atmosphere at 37 °C and 5% (v/v) CO2, and later synchronized in early S-phase with a 2
mM thymidine solution (Merck, Germany) for a 16 h period. Later, medium with thymidine was
replaced by fresh media and, after 8 h a second block with thymidine was performed in the same
concentrations of Cu(II) complexes. 0.1% (v/v) DMSO was used as the vehicle control while 5 μM
After treatment, cells were incubated for 9, 12,

[7] = complexes at IC50, Dox 6 μM, cisplatin 5 μM

SMILES | IC50 [1] | IC50 [2] | IC50 [3] | IC50 [4] | also measured
c1ccc(-c2cc(-c3cccc4ccccc34)cc(-c3ccccn3)n2)nc1 [L1] | ~0.2 µM | > 50 µM | – | – | –
c1ccc(-c2cc(-c3ccnc4ccccc34)cc(-c3ccccn3)n2)nc1 [L2] | 0.4 ± 0.02 µM | > 50 µM | – | – | –
COc1ccc2c(OC)ccc(-c3cc(-c4ccccn4)nc(-c4ccccn4)c3)c2c1 [L4] | 0.4 ± 0.25 µM | 13.1 ± 3.18 µM | – | – | –
c1ccc(-c2cc(-c3ccco3)cc(-c3ccccn3)n2)nc1 [L5] | 0.6 ± 0.02 µM | > 50 µM | – | – | –
c1ccc(-c2cc(-c3ccccn3)nc(-c3ccccn3)c2)nc1 [L7] | 0.5 ± 0.06 µM | ~50 µM | – | – | –
CCn1c2ccccc2c2cc(-c3cc(-c4ccccn4)nc(-c4ccccn4)c3)ccc21 [L8] | 0.4 ± 0.04 µM | ~10 µM | – | – | –
[N-]=[N+]=[N-].[Na+] [NaN3, sodium azide, reference compound] | – | – | – | – | effect of control reagent alone on pUC18 (pUC18 plasmid DNA; 24 h): no effect
CC(C)(C)OO [TBHP, Tert-Butyl hydroperoxide, reference compound] | – | – | – | – | effect of control reagent alone on pUC18 (pUC18 plasmid DNA; 24 h): unable to induce pUC18 cleavage
F[P-](F)(F)(F)(F)F.F[P-](F)(F)(F)(F)F.[Cl][Cu].[Cl][Cu].c1ccc(-c2cc(-c3cccc4ccccc34)cc(-c3ccccn3)n2)nc1.c1ccc(-c2cc(-c3cccc4ccccc34)cc(-c3ccccn3)n2)nc1 [complex 1, [Cu2Cl2(4′-(1-Naphthyl)-terpy)2](PF6)2] | 0.12 ± 0.01 µM | 3.04 ± 0.02 µM | 0.16 ± 0.01 µM | 0.8 ± 0.05 µM | –
COc1ccc2c(OC)ccc(-c3cc(-c4ccccn4)nc(-c4ccccn4)c3)c2c1.COc1ccc2c(OC)ccc(-c3cc(-c4ccccn4)nc(-c4ccccn4)c3)c2c1.F[P-](F)(F)(F)(F)F.F[P-](F)(F)(F)(F)F.[Cl][Cu].[Cl][Cu] [complex 4, [Cu2Cl2(4′-(4,7-Dimethoxy-1-naphthyl)-terpy)2](PF6)2] | 0.16 ± 0.01 µM | 2.64 ± 0.1 µM | 0.15 ± 0.04 µM | 0.49 ± 0.1 µM | –
F[P-](F)(F)(F)(F)F.F[P-](F)(F)(F)(F)F.[Cl][Cu].[Cl][Cu].c1ccc(-c2cc(-c3ccccn3)nc(-c3ccccn3)c2)nc1.c1ccc(-c2cc(-c3ccccn3)nc(-c3ccccn3)c2)nc1 [complex 7, [Cu2Cl2(4′-(2-Pyridynyl)-terpy)2](PF6)2] | 0.19 ± 0.01 µM | 16.08 ± 0.05 µM | 0.23 ± 0.01 µM | 1.13 ± 0.2 µM | expression of BAX compared to the DMSO control (BAX and BCL-2): decreases; expression of BCL-2 compared to the DMSO control (BAX and BCL-2): increases; formation of new blood vessels after 24 h (chicken embryos; 24 h): no pro- or antiangiogenic effect; formation of new blood vessels after 48 h (chicken embryos; 48 h): antiangiogenic effect; cells (%) early apoptosis (HCT116DoxR cells [5]; [7]): 37.4 ± 7.4%; cells (%) late apoptosis (HCT116DoxR cells [5]; [7]): 9.0 ± 2.6%; cells (%) necrosis (HCT116DoxR cells [5]; [7]): 1.1 ± 0.5%; cells (%) viable (HCT116DoxR cells [5]; [7]): 52.5 ± 6.7%; percentage of apoptosis (early + late) (HCT116DoxR cells [5]; [7]): ~46%; fold increase in apoptotic cells, normalized to DMSO (HCT116DoxR cells [5]; complexes at IC50, cisplatin 5 μM): 5 fold; apparent binding constant (Kapp) (EB–ct-DNA adduct; EB displacement, KEB = 1 × 10^7 M^–1): 1.16 × 10^6 M^–1; Stern–Volmer quenching constant KSV (EB–ct-DNA adduct; EB–ct-DNA, 0–40 μM complex): 2320 M⁻¹; concentration at which the interaction with pDNA reaches saturation (pUC18 plasmid DNA; 100 ng pUC18, 24 h): 100 μM; pDNA cleavage mode (pUC18 plasmid DNA; 100 ng pUC18, 24 h, 5–100 μM complex): single and double strands; effect of NaN3 (singlet oxygen scavenger) on pDNA cleavage by the complex (pUC18 plasmid DNA; 24 h, 50 μM complex + 50 μM NaN3): almost completely reversed; IC50 (HCT116DoxR spheroids): 30.48 ± 0.19 µM; cell cycle progression after 12 h (HCT116DoxR cells [6]; 12 h, IC50, thymidine double block): delays cell cycle progression in the G2/M phase; cell cycle progression after 18 h (HCT116DoxR cells [6]; 18 h, IC50, thymidine double block): delay in cycle progression in the G0/G1 phase; cell cycle progression after 24 h (HCT116DoxR cells [6]; 24 h, complexes at IC50, cisplatin 5 μM): delay the cycle in the G2/M phase
CCn1c2ccccc2c2cc(-c3cc(-c4ccccn4)nc(-c4ccccn4)c3)ccc21.CCn1c2ccccc2c2cc(-c3cc(-c4ccccn4)nc(-c4ccccn4)c3)ccc21.F[P-](F)(F)(F)(F)F.F[P-](F)(F)(F)(F)F.[Cl][Cu].[Cl][Cu] [complex 8, [Cu2Cl2(4′-(N-Ethyl-9H-carbazol-3-yl)-terpy)2](PF6)2] | 0.19 ± 0.06 µM | 7.36 ± 0.04 µM | 0.1 ± 0.03 µM | 0.37 ± 0.06 µM | –
